Measurements as given in patent publication US20250345392A1, “ANNEXIN A1 LIQUID PHARMACEUTICAL COMPOSITION” (ResoTher Pharma A/S, priority 2022, published 2025).
Like-named read-outs stand apart in the source and are kept apart here. Ends that are not written are not given here.

Assay: Clinical test in humans, three 30-min i.v. infusions 8 hours apart, plasma PK
Assay type: in vivo
Settings: human, three 30-min i.v. infusions 8 h apart; for AUC / Cmax / Tmax / AUC(0-t) / half-life: iv; for AUC(0-t): read-out: AUC0-24; for half-life: after the last infusion
Procedure: A total of 8 subjects were included in each group. In each group, 6 subjects received the active treatment and 2 received the placebo. The active treatment was as follows in each group: • Group 9 received three 8 hours apart 30-min Peptide 1 intravenous (i.v.) infusions, wherein each i.v. infusion corresponded to a dose of 50 μg/kg. • Group 10 received three 8 hours apart 30-min Peptide 1 intravenous (i.v.) infusions, wherein each i.v. infusion corresponded to a dose of 100 μg/kg. • Group 11 received three 8 hours apart 30-min Peptide 1 intravenous (i.v.) infusions, wherein each i.v. infusion corresponded to a dose of 140 μg/kg. • Group 12 received three 8 hours apart 30-min Peptide 1 intravenous (i.v.) infusions, wherein each i.v. infusion corresponded to a dose of 200 μg/kg. • Group 13 received three 8 hours apart 30-min Peptide 1 intravenous (i.v.) infusions, wherein each i.v. infusion corresponded to a dose of 250 μg/kg.
The tested liquid pharmaceutical composition has a pH of 8.2-8.4, and comprises the following: • i) 5 mg/ml of Peptide 1, • ii) 4% (w/w) mannitol, • iii) 1% (w/w) sucrose, • iv) 0.01% (w/w) Polysorbate-80, • v) 10 mM glycyl-glycine, and • vi) sterile water for injection.
Venous whole blood samples were collected from all subjects.
Plasma samples were analyzed for Peptide 1 using validated Liquid chromatography—Tandem Mass spectrometry (LC-MS/MS) methods by Charles River Laboratories (CRL).
Derivation of PK parameters were carried out by PhinC Development using Phoenix WinNonlin® (Version Phoenix 8.1—Certara—Princeton—USA). A non-compartmental analysis (NCA) approach was chosen.
For the calculation of the PK parameters and characteristics the following rules were applied: • All the plasma concentrations validated by the bioanalytical laboratory and provided to the pharmacokinetics were used for the PK analysis. • The theoretical PK blood sampling time points were used. • At time points in the lag-time between time zero and the first concentration equal or above limit of quantification (LOQ), concentrations below the LOQ (BLQ) were set to zero (0). • Concentrations BLQ between 2 concentrations equal or above LOQ were considered as missing. • Trailing concentrations (at time point between time of last measurable concentrations and time of last blood sample) BLQ were not used in calculations. • For 3 infusions regimen, each infusion was considered separately and BLQ rules were applied for each infusion. […] If the pre-dose value was greater than 5% of Cmax, the subject was dropped from all statistical evaluations.
AUC0-tau was only calculated if there were at least 3 concentrations above LOQ. • AUC0-24: The area under the plasma concentration-time curve from time zero (pre-dose) to 24 h was calculated as the sum of the 3 AUC0-tau: AUC0-24=AUC0-tau1+AUC0-tau2+AUC0-tau3. • AUC0-t: The area under the concentration-time curve from time zero (pre-dose) to the time of last quantifiable concentration was calculated using a linear trapezoidal method after each administration (AUC0-t1, AUC0-t2 and AUC0-t3, where AUC0-t1 was AUC0-t corresponded to the AUC from pre-dose to the last measurable quantifiable concentration following the first infusion). AUC0-t was only calculated if there were at least 3 concentrations above LOQ. • ke: The terminal plasma elimination rate-constant was estimated from log-linear regression analysis of the terminal phase of the plasma concentration-time profile. The number of points included in the terminal phase was determined by visual inspection of the semi-log plots of the plasma concentration-time profiles. A minimum of 3 data points, including the last measured data point and excluding Cmax, had to be available for the regression. The correlation coefficient for the goodness of the fit of the regression line through the data points (r^2) had to be 0.8000 or higher, for the value to be considered reliable. […]

Question: What does the source list for “AMVSEFLKQAWFIENEEQEYVQTLKSSKGGPGSAVSPYPTFNPSSDV-NH2 [Peptide 1]”?
Answer: AUC (in vivo, 250 ug/kg, 250 μg/kg each, mean, read-out: AUC0-t3): 2430 ng·h/mL; AUC (in vivo, 250 ug/kg, 250 μg/kg each, mean, read-out: AUC0-tau1): 2630 ng·h/mL; AUC (in vivo, 250 ug/kg, 250 μg/kg each, mean, read-out: AUC0-tau2): 2440 ng·h/mL; AUC (in vivo, 250 ug/kg, 250 μg/kg each, mean, read-out: AUC0-tau3): 2480 ng·h/mL; Cmax (in vivo, 250 ug/kg, 250 μg/kg each, mean, read-out: Global Cmax): 2330 ng/mL; Tmax (in vivo, 250 ug/kg, 250 μg/kg each, median, read-out: Global tmax): 8.5 h; Tmax (in vivo, 250 ug/kg, 250 μg/kg each, median, read-out: tmax3): 16.5 h; AUC (in vivo, 50 μg/kg each, GM, read-out: AUC0-t1): 417 ng·h/mL; AUC (in vivo, 50 μg/kg each, GM, read-out: AUC0-tau1): 509 ng·h/mL; AUC (in vivo, 50 μg/kg each, mean, read-out: AUC0-tau2): 517 ng·h/mL; AUC (in vivo, 50 μg/kg each, mean, read-out: AUC0-tau3): 541 ng·h/mL; AUC(0-t) (in vivo, 100 μg/kg each, GM): 3600 ng·h/mL; AUC (in vivo, 100 μg/kg each, GM, read-out: AUC0-t1): 982 ng·h/mL; AUC (in vivo, 100 μg/kg each, GM, read-out: AUC0-t2): 1120 ng·h/mL; AUC (in vivo, 100 μg/kg each, GM, read-out: AUC0-t3): 1090 ng·h/mL; AUC (in vivo, 100 μg/kg each, mean, read-out: AUC0-t1): 993 ng·h/mL; AUC (in vivo, 100 μg/kg each, mean, read-out: AUC0-tau1): 1120 ng·h/mL; AUC (in vivo, 100 μg/kg each, mean, read-out: AUC0-tau2): 1240 ng·h/mL; AUC (in vivo, 100 μg/kg each, mean, read-out: AUC0-tau3): 1260 ng·h/mL; Cmax (in vivo, 100 μg/kg each, mean, read-out: Global Cmax): 1020 ng/mL; half-life (in vivo, 140 μg/kg each, GM): 1.93 h; AUC(0-t) (in vivo, 140 μg/kg each, GM): 5310 ng·h/mL; AUC (in vivo, 140 μg/kg each, GM, read-out: AUC0-t3): 1570 ng·h/mL; AUC (in vivo, 140 μg/kg each, mean, read-out: AUC0-tau3): 1710 ng·h/mL; half-life (in vivo, 200 μg/kg each, GM): ~2 h; AUC (in vivo, 200 μg/kg each, GM, read-out: AUC0-t1): 2490 ng·h/mL; AUC (in vivo, 200 μg/kg each, GM, read-out: AUC0-tau1): 2590 ng·h/mL; AUC (in vivo, 200 μg/kg each, GM, read-out: AUC0-tau2): 2750 ng·h/mL; AUC (in vivo, 200 μg/kg each, GM, read-out: AUC0-tau3): 2710 ng·h/mL; Cmax (in vivo, 200 μg/kg each, mean, read-out: Global Cmax): 2370 ng/mL; half-life (in vivo, 250 μg/kg each, GM): ~2 h; AUC (in vivo, 250 μg/kg each, GM, read-out: AUC0-t1): 2500 ng·h/mL; AUC (in vivo, 250 μg/kg each, GM, read-out: AUC0-t2): 2300 ng·h/mL; AUC (in vivo, 250 μg/kg each, GM, read-out: AUC0-tau3): 2460 ng·h/mL; Tmax (in vivo, all subjects except one (time of the end of infusion), read-out: tmax after each administration): 0.5 h; Cmax (plasma, 50 μg/kg, 50 μg/kg each, GM, read-out: Cmax1): 403 ng/mL; Cmax (plasma, 50 μg/kg, 50 μg/kg each, mean, read-out: Cmax2): 395 ng/mL; Cmax (plasma, 100 μg/kg, 100 μg/kg each, GM, read-out: Cmax1): 877 ng/mL; Cmax (plasma, 100 μg/kg, 100 μg/kg each, GM, read-out: Cmax3): 958 ng/mL; Cmax (plasma, 100 μg/kg, 100 μg/kg each, mean, read-out: Cmax1): 883 ng/mL; Cmax (plasma, 100 ug/kg, 100 μg/kg each, mean, read-out: Cmax2): 977 ng/mL; Cmax (plasma, 140 μg/kg, 140 μg/kg each, GM, read-out: Cmax1): 1310 ng/mL; Cmax (plasma, 140 μg/kg, 140 μg/kg each, GM, read-out: Cmax3): 1220 ng/mL; Cmax (plasma, 140 μg/kg, 140 μg/kg each, mean, read-out: Cmax1): 1340 ng/mL; Cmax (plasma, 200 μg/kg, 200 μg/kg each, GM, read-out: Cmax3): 2130 ng/mL; Cmax (plasma, 200 μg/kg, 200 μg/kg each, mean, read-out: Cmax1): 2190 ng/mL; Cmax (plasma, 200 μg/kg, 200 μg/kg each, mean, read-out: Cmax2): 2050 ng/mL; Cmax (plasma, 250 μg/kg, 250 μg/kg each, GM, read-out: Cmax1): 1890 ng/mL; Cmax (plasma, 250 μg/kg, 250 μg/kg each, GM, read-out: Cmax2): 1800 ng/mL; Cmax (plasma, 250 μg/kg, 250 μg/kg each, GM, read-out: Cmax3): 1780 ng/mL; Cmax (plasma, 250 μg/kg, 250 μg/kg each, mean, read-out: Cmax1): 1960 ng/mL; Cmax2 (50 μg/kg each, GM): 391 ng/mL; Cmax3 (50 μg/kg each, GM): 396 ng/mL; tmax1 (50 μg/kg each, GM): 0.50 h; tmax2 (50 μg/kg each, GM): 8.50 h; Cmax1 (50 μg/kg each, mean): 406 ng/mL; tmax1 (50 μg/kg each, median): 0.50 h; tmax2 (50 μg/kg each, median): 8.50 h; tmax3 (50 μg/kg each, median): 16.50 h; Cmax2 (100 μg/kg each, GM): 971 ng/mL; tmax1 (100 μg/kg each, GM): 0.50 h; tmax2 (100 μg/kg each, GM): 8.50 h; tmax3 (100 μg/kg each, GM): 16.50 h; Cmax3 (100 μg/kg each, mean): 970 ng/mL; tmax1 (100 μg/kg each, median): 0.50 h; tmax2 (100 μg/kg each, median): 8.50 h; Cmax2 (140 μg/kg each, GM): 1360 ng/mL; tmax1 (140 μg/kg each, GM): 0.50 h; tmax2 (140 μg/kg each, GM): 8.47 h; tmax3 (140 μg/kg each, GM): 16.50 h; Cmax2 (140 μg/kg each, mean): 1390 ng/mL; Cmax3 (140 μg/kg each, mean): 1240 ng/mL; tmax1 (140 μg/kg each, median): 0.50 h; tmax2 (140 μg/kg each, median): 8.50 h; AUC0-tau3 (200 μg/kg each, GM): 2774.47 ng·h/mL; Cmax1 (200 μg/kg each, GM): 2170 ng/mL; Cmax2 (200 μg/kg each, GM): 2020 ng/mL; tmax1 (200 μg/kg each, GM): 0.50 h; tmax2 (200 μg/kg each, GM): 8.50 h; tmax3 (200 μg/kg each, GM): 16.47 h; Cmax3 (200 μg/kg each, mean): 2170 ng/mL; tmax1 (200 μg/kg each, median): 0.50 h; tmax2 (200 μg/kg each, median): 8.50 h; tmax2 (250 μg/kg each, GM): 8.54 h; tmax3 (250 μg/kg each, GM): 16.44 h; Cmax2 (250 μg/kg each, mean): 1930 ng/mL; Cmax3 (250 μg/kg each, mean): 1800 ng/mL; tmax1 (250 μg/kg each, median): 0.50 h; tmax2 (250 μg/kg each, median): 8.50 h
